Key:
[1] = test system: pulmonary hypertension induced by injection of monocrotaline in rats; experiment: Survival of rats with monocrotaline-induced pulmonary hypertension; format: in vivo, Male Sprague-Dawley rats
Experimental: Male Sprague-Dawley rats weighing about 300 g received a subcutaneous injection of monocrotaline (MCT) at a dose of 80 mg/kg.
The treatment with irbesartan was started either 21 days or 14 days after injection of monocrotaline. Irbesartan was incorporated into the food in powder form. The control animals received food alone.
Throughout the study, the animals were examined daily.
In a first study, irbesartan was administered alone at a dose of 50 mg/kg. In a second study, irbesartan was administered alone at a dose of 30 mg/kg and in combination with hydrochlorothiazide (HCTZ): irbesartan: 30 mg/kg and HCTZ: 10 mg/kg.

[2] = test system: pulmonary hypertension induced with monocrotaline; details: reported by L. Cassis et al. and R. Kreutz et al.; cited from earlier work
[3] = Study 2, treatment started on the 14th day post-MCT, irbesartan 30 mg/kg, HCTZ 10 mg/kg, alone or in combination
[4] = Study 1, irbesartan 50 mg/kg in food, treatment started on the 14th day after MCT 80 mg/kg s.c.
[5] = Study 1, irbesartan 50 mg/kg in food, treatment started on the 21st day after MCT 80 mg/kg s.c.

SMILES	Survival to the 50th day [1, 3]	Survival to the end of the study (85th day) [1, 3]	Survival time of the MCT-treated rats ([1]; 50 mg/kg/day, either from the 21st day or from the 14th day post-MCT)	Survival to the 25th day [1, 4]	Survival to the 50th day [1, 4]	Survival to the end of the study (100th day) [1, 4]	Survival to the end of the study (100th day) ([1]; Study 1, irbesartan 50 mg/kg in food, treatment started on the 14th day after MCT 80 mg/kg s.c., listed as irbesartan)	Survival to the 25th day [1, 5]	Survival to the 50th day [1, 5]	Survival to the end of the study (57th day) [1, 5]	Survival to the end of the study (57th day) ([1]; Study 1, irbesartan 50 mg/kg in food, treatment started on the 21st day after MCT 80 mg/kg s.c., listed as irbesartan)	Overall survival time estimated ([1]; Study 1, irbesartan 50 mg/kg, treatment started on the 14th day post-MCT, control group 46 days)	Median estimated survival time ([1]; Study 2, treatment started on the 14th day post-MCT, irbesartan 30 mg/kg alone or with HCTZ 10 mg/kg)	Effect in the monocrotaline pulmonary hypertension model [2]
NS(=O)(=O)c1cc2c(cc1Cl)NCNS2(=O)=O [HCTZ, hydrochlorothiazide]	25%	4.2%	–	–	–	–	–	–	–	–	–	–	–	–
CCCCC1=NC2(CCCC2)C(=O)N1Cc1ccc(-c2ccccc2-c2nnn[nH]2)cc1 [Irbesartan]	47.8%	0%	significantly increased the survival time	100% (12/12)	83% (10/12)	50% (6/12)	50%	100% (18/18)	72% (13/18)	61% (11/18)	61%	> 93 days	46 days	–
CCCCc1nc(Cl)c(CO)n1Cc1ccc(-c2ccccc2-c2nn[nH]n2)cc1 [losartan]	–	–	–	–	–	–	–	–	–	–	–	–	–	no effect

From patent US8088827B2, “Use of irbesartan for the preparation of medicinal products that are useful for treating pulmonary hypertension” (Sanofi-Aventis, priority 2001, dated 2012)
